This note sets out measurements from US9012674B1, “Ethyl (2R)-2-acetamido-3-(4-methylbenzoylsulfanyl)propanoate and uses thereof” (Promentis Pharmaceuticals, Inc., priority 2013, dated 2015).

In data set [1] the test system is human glial cells from brain astrocytoma (1321N1). Nature of the data set: 14C-cystine uptake in human astrocytoma cell culture. In kind it is cell-based. The conditions noted are these: 100 μM (most effective concentration); three hour incubation; versus untreated control; average of three experiments. Here is the method:
The goal of these experiments was to determine ^14C-cystine uptake. The experiments were conducted as follows.
The screening of the compound was performed using an in vitro culture system of human glial cells from brain astrocytoma (1321N1). Cells were plated on 24 well plates coated with poly-D-lysine and laminin and grown in a balanced salt solution supplemented with 5% heat inactivated horse serum, 5% fetal bovine serum, 2 mM glutamine and glucose (total 21 mM). Cultures were maintained in humidified 5% CO2 incubators at 37° C. for 3-4 days before experiments were performed, at this time the cultures has formed a single confluent layer. For experiments, cultures were washed 3 times into a Na-free HEPES and HCO3^− buffered balanced salt solution. After 1 hour the test compounds are added. Following a three hour incubation, ^14C-cystine (0.025 mCi/mL) was then added for 20 minutes. Following the ^14C-cystine exposure, cultures were washed 3 times with ice cold HEPES buffered saline solution and dissolved in 250 μl sodium dodecyl sulfate (0.1%). An aliquot (200 μl) was removed and added to scintillation fluid for counting. Values were normalized to ^14C-cystine uptake in untreated controls on the same experimental plate. […]

Data set [2] has the same test system. Nature of the data set: 3H-glutamate release in human astrocytoma cell culture. In kind it is cell-based. The note with it: 300 μM (most effective concentration); at 3 hours; versus untreated control. As to the method: This assay also uses the cell culture system of human glial cells from brain astrocytoma (1321N1) described above. Initially, cells are washed with HBBSS, and ^3H-glutamate is added (PerkinElmer: 1 mCi/mL stock solution is diluted (30 μL+500 μL HBBSS) and 10 μL of diluted radiolabel is added to each well). Following a 1 hour incubation to load the cells with the labeled glutamate, the cells are washed again with HBBSS, and the drug is added. At 30, 90, and 180 minutes, 50 μL of extracellular media is sampled from each well and is measured using a Beckman LS 6500 scintillation counter.
Results of the ^14C-cystine uptake and ^3H-glutamate release by astrocytes treated with differing concentrations of Pro-4051, are presented in FIG. 1, as a percentage of the untreated control. […] This graph represents an average of three experiments run.

Data set [3] in a line: Solubility data. The note with it: according to solubility data; read-out: concentration above which compound is not in solution (solubility). In kind it is physicochemical.

Each structure is given as a SMILES string. Some results are limits rather than exact numbers.

In the case of `CCOC(=O)[C@H](CSC(=O)c1ccc(C)cc1)NC(C)=O` [Pro-4051, ethyl (2R)-2-acetamido-3-(4-methylbenzoylsulfanyl)propanoate], the “decrease in 14C-cystine uptake” value in data set [1] is given as “approximately 28%”. In data set [2], the “increase in 3H-glutamate release” value is given as “approximately 100%”. Further, the solubility in data set [3] was not above 316 µM.
